In US10494384B2, “Urea peptoid boric acid compound, pharmaceutical composition thereof, preparation method therefor, and uses thereof” (Peking University, priority 2015, dated 2019):

Key:
A549, human lung cancer = assay: preliminary anti-tumor screening in vitro, SRB method; assay type: cell-based; details: read-out: inhibition rates (%) A549
Procedure: (§1) The test methods used in this test example are routine methods for anti-tumor activities test in pharmaceutical area, for example, referring to the following reference: (J. Immunol Method, 1983, 65, 55).
(§2) Test models: A: MTT method (Hela, human cervical carcinoma); B: SRB method (BGC-823, […]); C: SRB method (MCF-7, breast cancer); D: SRB method (A549, human lung cancer); E: SRB method (PC3M1E8, prostate cancer).
(§3) Inhibition rates of the compounds were measured under concentrations of 0.1 μM, 1 μM or 10 μM.

BGC-823, liver cancer = assay: as above; assay type: cell-based; details: Homo sapiens, read-out: inhibition rates (%) BGC-823
Procedure: as §1, §2, §3

MCF-7, breast cancer = assay: as above; assay type: cell-based; details: Homo sapiens, read-out: inhibition rates (%) MCF-7; for inhibition at 0.1 µM: MCF7, 0.1 μM; for inhibition at 1 µM: MCF7, 1 μM; for inhibition at 10 µM: MCF7, 10 μM
Procedure: as §1, §2, §3

[1] = biological target: T1, 20S proteasome extracted from rat liver (PGPH) (Rattus norvegicus, UniProt P28073+Q9JHW0); assay: inhibition of 20S proteasome, PGPH activity (fluorescent peptide); assay type: biochemical; details: rat liver 20S proteasome, 37° C., 1 h, read-out: inhibition rates (%) PGPH
T1 construct: 20S proteasome extracted from rat liver; from tissue; host or cells: rat liver
Procedure: (§4) 1 μg of 20S proteasome extracted from rat liver was incubated with a 100 μL solution containing various concentrations of the present compounds, 50 μM fluorescent peptides and 20 mM Tris-HCl at 37° C. for 1 h, respectively. […] 0.1% DMSO was used as a solvent control. Compared with the fluorescence of solvent control, an inhibition rate or IC50 value was calculated.

[2] = biological target: T2, 20S proteasome extracted from rat liver (CT-L) (Rattus norvegicus, UniProt P18421+P28075); assay: inhibition of 20S proteasome, CT-L activity (fluorescent peptide); assay type: biochemical; details: rat liver 20S proteasome, 37° C., 1 h, read-out: inhibition rates (%) CT-L
T2 construct: 20S proteasome extracted from rat liver; from tissue; host or cells: rat liver
Procedure: as §4

[3] = tested on: Hela, human cervical carcinoma; assay: preliminary anti-tumor screening in vitro, MTT method; assay type: cell-based; details: read-out: inhibition rates (%) Hela
Procedure: as §1, §2, §3

[4] = biological target: T3, 20S proteasome extracted from rat liver (T-L) (Rattus norvegicus, UniProt P40112+Q9JHW0); assay: inhibition of 20S proteasome, T-L activity (fluorescent peptide); assay type: biochemical; details: rat liver 20S proteasome, 37° C., 1 h, read-out: inhibition rates (%) T-L
T3 construct: 20S proteasome extracted from rat liver; from tissue; host or cells: rat liver
Procedure: as §4

| SMILES | inhibition at 0.1 µM (A549, human lung cancer) | inhibition at 1 µM (A549, human lung cancer) | inhibition at 10 µM (A549, human lung cancer) | inhibition at 0.1 µM (BGC-823, liver cancer) | inhibition at 1 µM (BGC-823, liver cancer) | inhibition at 10 µM (BGC-823, liver cancer) | inhibition at 0.1 µM (MCF-7, breast cancer) | inhibition at 1 µM (MCF-7, breast cancer) | inhibition at 10 µM (MCF-7, breast cancer) | inhibition at 0.2 µM [1] | inhibition at 2 µM [1] | inhibition at 20 µM [1] | inhibition at 0.2 µM [2] | inhibition at 2 µM [2] | inhibition at 20 µM [2] | inhibition at 0.1 µM [3] | inhibition at 1 µM [3] | inhibition at 10 µM [3] | inhibition at 0.2 µM [4] | inhibition at 2 µM [4] | also measured |
| --- | --- | --- | --- | --- | --- | --- | --- | --- | --- | --- | --- | --- | --- | --- | --- | --- | --- | --- | --- | --- | --- |
| CC(C)C[C@H](NC(=O)CNC(=O)Nc1cccc(OCc2ccccc2)c1)B(O)O [Example 21, N-glycyl-L-leucine borate-N′-(3-benzyloxy-phenylamine)-urea] | 7.42% | 25.2% | 41.4% | 0.38% | 2.21% | 23.1% | 5.41% | 9.64% | 24.2% | 8.58% | 62.5% | 96.9% | 47.3% | 90.9% | 95.6% | 9.87% | 12.9% | 29.9% | 0.355% | 29.3% | inhibition at 20 µM [4]: 62% |
| CC(C)C[C@H](NC(=O)N[C@@H](CC(C)C)C(=O)N[C@@H](CC(C)C)C(=O)Nc1cnccn1)B(O)O [Example 11, N-L-leucine borate-N′-(pyrazin-2-ylcarbamoyl)-L-leucyl-L-leucine-urea] | -4.49% | 0.81% | 26.6% | 6.32% | 4.58% | 13.1% | 4.81% | 7.23% | 16.1% | 12.8% | 32.6% | 81% | 5.79% | 52.8% | 92.5% | 2.45% | 6.1% | 19.2% | -8.06% | -5.63% | inhibition at 20 µM [4]: 25.2% |
| COc1ccc(CNC(=O)[C@H](Cc2ccccc2)NC(=O)N[C@@H](CC(C)C)B(O)O)cc1 [Example 1, N-L-leucine borate-N′-(p-methoxy-benzylcarbamoyl)-L-phenylalanine-urea] | 1.44% | 35.3% | 50.2% | 7.79% | 14.9% | 32% | 1% | 7.46% | 22.9% | 40.9% | 87.9% | 96.6% | 33.8% | 86.8% | 93.6% | 8.67% | 28% | 38.5% | -6.55% | 22.8% | inhibition at 20 µM [4]: 35.5% |
| CC(C)C[C@H](NC(=O)N[C@@H](Cc1ccccc1)C(=O)Nc1cccc(OCc2ccccc2)c1)B(O)O [Example 4, N-L-leucine borate-N′-(3-benzyloxy-phenylcarbamoyl)-L-phenylalanine-urea] | 6.4% | 16.2% | 31.1% | 6.67% | 4.64% | 13.1% | 6.46% | 9.07% | 9.93% | 2.03% | 2.19% | 62.7% | -14.2% | 10.4% | 77.7% | 9.59% | 11.3% | 25.4% | 6.92% | 4.38% | inhibition at 20 µM [4]: 36.2% |
